Data taken from ChEMBL document CHEMBL5380809, “Discovery of Novel N-Hydroxy-1,2,4-oxadiazole-5-formamides as ASM Direct Inhibitors for the Treatment of Atherosclerosis” (J Med Chem, 2023).
Activity calls are given as the source filed them. The calls are words filed in the database; no cut-off is given here.

Columns and labels:
HUVEC [1] = test: Cytotoxicity against HUVEC cells assessed as cell growth inhibition at 0.5 to 20 uM incubated for 24 to 48 hrs by MTT assay; assay type: toxicity, cell-based; settings: human, dose lower 0.5 µM, time lower 24 hrs, dose upper 20 µM, time upper 48 hrs
[2] = Half life in ICR mouse at 1 mg/kg, iv measured for 0.083 to 24 hrs by LC-MS/MS analysis; assay type: ADME, organism-based; settings: in vivo, time 0.083-24 hrs
[3] = Tmax in ICR mouse at 1 mg/kg, iv measured for 0.083 to 24 hrs by LC-MS/MS analysis; assay type: ADME, organism-based; settings: in vivo, time 0.083-24 hrs
[4] = Cmax in ICR mouse at 1 mg/kg, iv measured for 0.083 to 24 hrs by LC-MS/MS analysis; assay type: ADME, organism-based; design: time lower 0.083 hrs, dose 1 mg/kg, time upper 24 hrs, route iv; settings: in vivo
[5] = AUC (0 to t) in ICR mouse at 1 mg/kg, iv measured for 0.083 to 24 hrs by LC-MS/MS analysis; assay type: ADME, organism-based; design: time 0.083-24 hrs, dose 1 mg/kg, route iv; settings: in vivo
[6] = AUC (0 to infinity ) in ICR mouse at 1 mg/kg, iv measured for 0.083 to 24 hrs by LC-MS/MS analysis; assay type: ADME, organism-based; design: time upper 24 hrs, time lower 0.083 hrs, dose 1 mg/kg, route iv; settings: in vivo
[7] = Apparent volume of distribution in ICR mouse at 1 mg/kg, iv measured for 0.083 to 24 hrs by LC-MS/MS analysis; assay type: ADME, organism-based; settings: in vivo, time 0.083-24 hrs, read-out: Vz
[8] = Clearance in ICR mouse at 1 mg/kg, iv measured for 0.083 to 24 hrs by LC-MS/MS analysis; assay type: ADME, organism-based; settings: in vivo, time 0.083-24 hrs
[9] = MRT (0 to infinity) in ICR mouse at 1 mg/kg, iv measured for 0.083 to 24 hrs by LC-MS/MS analysis; assay type: ADME, organism-based; settings: in vivo, time 0.083-24 hrs
[10] = Half life in ICR mouse at 10 mg/kg, po measured for 0.083 to 24 hrs by LC-MS/MS analysis; assay type: ADME, organism-based; settings: in vivo, time 0.083-24 hrs
[11] = Cmax in ICR mouse at 10 mg/kg, po measured for 0.083 to 24 hrs by LC-MS/MS analysis; assay type: ADME, organism-based; design: time upper 24 hrs, time lower 0.083 hrs, dose 10 mg/kg, route po; settings: in vivo
[12] = AUC (0 to t) in ICR mouse at 10 mg/kg, po measured for 0.083 to 24 hrs by LC-MS/MS analysis; assay type: ADME, organism-based; design: time upper 24 hrs, time lower 0.083 hrs, dose 10 mg/kg, route po; settings: in vivo
[13] = AUC (0 to infinity) in ICR mouse at 10 mg/kg, po measured for 0.083 to 24 hrs by LC-MS/MS analysis; assay type: ADME, organism-based; design: time lower 0.083 hrs, dose 10 mg/kg, time upper 24 hrs, route po; settings: in vivo
[14] = MRT (0 to t) in ICR mouse at 10 mg/kg, po measured for 0.083 to 24 hrs by LC-MS/MS analysis; assay type: ADME, organism-based; settings: in vivo, time 0.083-24 hrs
[15] = MRT (0 to infinity) in ICR mouse at 10 mg/kg, po measured for 0.083 to 24 hrs by LC-MS/MS analysis; assay type: ADME, organism-based; settings: in vivo, time 0.083-24 hrs
[16] = Oral bioavailability in ICR mouse at 10 mg/kg measured for 0.083 to 24 hrs by LC-MS/MS analysis; assay type: ADME, organism-based; settings: in vivo, time 0.083-24 hrs
[17] = In vivo inhibition of aSMase in C57BL/6 mouse assessed as decrease in liver aSMase level at 40 mg/kg, ip bid for 1 week by ELISA method relative to control; assay type: functional; design: scale not given: the % may be the effect or the level left; settings: time 1 weeks
Mus musculus [18] = test: In vivo inhibition of aSMase in C57BL/6 mouse assessed as decrease in liver S1P level at 6 to 40 mg/kg, ip bid for 1 week by ELISA method; assay type: functional, organism-based; settings: dose 6-40 mg/kg, time 1.0 weeks
Mus musculus [19] = test: In vivo inhibition of aSMase in C57BL/6 mouse assessed as decrease in liver sphingomyelin level at 6 to 40 mg/kg, ip bid for 1 week by ELISA method; assay type: functional, organism-based; settings: dose 6-40 mg/kg, time 1.0 weeks
Mus musculus [20] = test: In vivo inhibition of aSMase in C57BL/6 mouse assessed as decrease in plasma ceramide level at 6 to 40 mg/kg, ip bid for 1 week by ELISA method; assay type: functional, organism-based; settings: dose 6-40 mg/kg, time 1.0 weeks
Mus musculus [21] = test: Antiatherosclerotic activity in high-fat diet fed ApoE-/- mouse assessed as reduction in lipid plaque area administered intraperitoneally twice daily measured after 8 weeks by oil red O staining based analysis; assay type: functional, organism-based; settings: dose 12-40 mg/kg, route ip
Mus musculus [22] = test: Antiatherosclerotic activity in high-fat diet fed ApoE-/- mouse assessed as reduction in plasma total cholesterol level at 12 to 40 mg/kg, ip bid measured after 8 weeks; assay type: functional, organism-based; settings: dose 12-40 mg/kg
Mus musculus [23] = test: Antiatherosclerotic activity in high-fat diet fed ApoE-/- mouse assessed as reduction in plasma total triacylglycerol level at 12 to 40 mg/kg, ip bid measured after 8 weeks; assay type: functional, organism-based; settings: dose 12-40 mg/kg
Mus musculus [24] = test: Antiatherosclerotic activity in high-fat diet fed ApoE-/- mouse assessed as reduction in plasma Ox-LDL-C level at 40 mg/kg, ip bid measured after 8 weeks; assay type: functional, organism-based
Mus musculus [25] = test: Antiatherosclerotic activity in high-fat diet fed ApoE-/- mouse assessed as reduction in plasma ceramide level administered intraperitoneally twice daily measured after 8 weeks by ELISA method; assay type: functional, organism-based; settings: dose 12-40 mg/kg, route ip
HUVEC [26] = test: Antiinflammatory activity against HUVEC cells assessed as decrease in LPS-induced IL-6 level measured after 22 hrs by ELISA method; assay type: functional, cell-based; settings: Homo sapiens, dose 1-5 µM
HUVEC [27] = test: Antiinflammatory activity against HUVEC cells assessed as decrease in LPS-induced TNF-alpha level measured after 22 hrs by ELISA method; assay type: functional, cell-based; settings: Homo sapiens, dose 1-5 µM
HUVEC [28] = test: Antiinflammatory activity against HUVEC cells assessed as decrease in Ox-LDL-induced IL-6 mRNA level at 5 uM measured after 22 hrs by RT-PCR analysis; assay type: functional, cell-based; settings: Homo sapiens
HUVEC [29] = test: Upregulation of extracellular sphingomyelin level in HUVEC cells upto 5 uM measured after 22 hrs by ELISA method; assay type: functional, cell-based; settings: Homo sapiens
HUVEC [30] = test: Downregulation of extracellular ceramide level in HUVEC cells upto 5 uM measured after 22 hrs by ELISA method; assay type: functional, cell-based; settings: Homo sapiens
HUVEC [31] = test: Upregulation of extracellular sphingomyelin level in Ox-LDL-induced HUVEC cells upto 5 uM measured after 22 hrs by ELISA method; assay type: functional, cell-based; settings: Homo sapiens
HUVEC [32] = test: Downregulation of extracellular ceramide level in Ox-LDL-induced HUVEC cells upto 5 uM measured after 22 hrs by ELISA method; assay type: functional, cell-based; settings: Homo sapiens
HUVEC [33] = test: Effect on extracellular S1P level in HUVEC cells upto 5 uM measured after 22 hrs by ELISA method; assay type: functional, cell-based; settings: Homo sapiens
HUVEC [34] = test: Effect on extracellular S1P level in LPS-induced HUVEC cells upto 5 uM measured after 22 hrs by ELISA method; assay type: functional, cell-based; settings: Homo sapiens
HUVEC [35] = test: Effect on extracellular S1P level in Ox-LDL-induced HUVEC cells upto 5 uM measured after 22 hrs by ELISA method; assay type: functional, cell-based; settings: Homo sapiens
HUVEC [36] = test: Upregulation of intracellular sphingomyelin level in HUVEC cells measured after 22 hrs by ELISA method; assay type: functional, cell-based; settings: Homo sapiens, dose <= 5.0 µM
HUVEC [37] = test: Upregulation of intracellular sphingomyelin level in LPS-induced HUVEC cells measured after 22 hrs by ELISA method; assay type: functional, cell-based; settings: Homo sapiens, dose <= 5.0 µM
HUVEC [38] = test: Downregulation of intracellular ceramide level in LPS-induced HUVEC cells at 5 uM measured after 22 hrs by ELISA method; assay type: functional, cell-based; settings: Homo sapiens
HUVEC [39] = test: Upregulation of intracellular sphingomyelin level in Ox-LDL-induced HUVEC cells measured after 22 hrs by ELISA method; assay type: functional, cell-based; settings: Homo sapiens, dose <= 5.0 µM
HUVEC [40] = test: Downregulation of intracellular ceramide level in Ox-LDL-induced HUVEC cells at 5 uM measured after 22 hrs by ELISA method; assay type: functional, cell-based; settings: Homo sapiens

For `O=C(NO)c1nc(-c2ccc(COc3ccc(Br)cc3)cc2)no1`, the Activity (HUVEC [1]) was “Non-Toxic”, the half-life [2] was 12 min and the Tmax [3] was 4.98 min. It also gave a Cmax [4] of 787 ng/mL, an AUC(0-t) [5] of 227 ng·h/mL and an AUC(0-inf) [6] of 228 ng·h/mL. For the same compound, the Vd [7] was 1.28 L/kg, the clearance [8] was 73.2 mL/min/kg and the MRT inf [9] was 5.22 min. For the same compound, the half-life [10] was 49.8 min, the Cmax [11] was 2760 ng/mL and the AUC(0-t) [12] was 805 ng·h/mL. The AUC(0-inf) [13] was 809 ng·h/mL, the MRT last [14] was 19.2 min and the MRT inf [15] was 21 min. For the same compound, the bioavailability [16] was 35.4%, the Activity [17] was 22% and the Activity (Mus musculus [18]) was “Active”. For the same compound, the Activity (Mus musculus [19]) was “Active”, the Activity (Mus musculus [20]) was “Active” and the Activity (Mus musculus [21]) was “Dose-Dependent Effect”. For the same compound, the Activity (Mus musculus [22]) was “inactive”, the Activity (Mus musculus [23]) was “inactive” and the Activity (Mus musculus [24]) was “Active”. For the same compound, the Activity (Mus musculus [25]) was “Dose-Dependent Effect”, the Activity (HUVEC [26]) was “Dose-Dependent Effect” and the Activity (HUVEC [27]) was “Dose-Dependent Effect”. The Activity (HUVEC [28]) was “Active”, the Activity (HUVEC [29]) was “Active” and the Activity (HUVEC [30]) was “Active”. The Activity (HUVEC [31]) was “Active”, the Activity (HUVEC [32]) was “Active” and the Activity (HUVEC [33]) was “inactive”. For the same compound, the Activity (HUVEC [34]) was “inactive”, the Activity (HUVEC [35]) was “inactive” and the Activity (HUVEC [36]) was “Dose-Dependent Effect”. The Activity (HUVEC [37]) was “Dose-Dependent Effect”, the Activity (HUVEC [38]) was “Active” and the Activity (HUVEC [39]) was “Dose-Dependent Effect”. For the same compound, the Activity (HUVEC [40]) was “Active”.
